pEC50, pIC50: −log10 of the molar value.

One assay addresses NS3/NS4 complexes (Hepatitis C virus genotype 1a, UniProt P27958). In words: NS3/NS4 inhibition assay (IC50). In kind it is biochemical. The following applies: NS3/NS4 activity; 23° C., 25 μM NS4A peptide. The source says: (§1) NS3-NS4 inhibition activity can be determined using known assay methods. For example, NS3/NS4 complexes may be formed and inhibitory concentrations of test compounds determined as described in U.S. Patent Application Publication Number 2007/0054842 paragraph numbers 1497-1509, which is incorporated herein by reference in its entirety. Similarly, hepatitis C replicon EC50 may be determined using known assay methods such as described in U.S. Patent Application Publication Number 2007/0054842 paragraph numbers 1510-1515, which is incorporated herein by reference in its entirety. Assays may be conducted at ambient temperature (23° C.) in assay buffer containing 50 mM Tris-HCl, pH 7.5, 15% glycerol, 0.6 mM Lauryldimethylamine Oxide (LDAO), 25 μM NS4A peptide, and 10 mM Dithiothreitol (DTT).

For the next assay, the system named is hepatitis C replicon. Put plainly: hepatitis C replicon EC50 assay. In kind it is cell-based. The settings on record: Hepatitis C virus; hepatitis C replicon; read-out: EC50.
Text: as §1

NS3/NS4 complexes, sequence (P27958 1027-1657, one chain of several): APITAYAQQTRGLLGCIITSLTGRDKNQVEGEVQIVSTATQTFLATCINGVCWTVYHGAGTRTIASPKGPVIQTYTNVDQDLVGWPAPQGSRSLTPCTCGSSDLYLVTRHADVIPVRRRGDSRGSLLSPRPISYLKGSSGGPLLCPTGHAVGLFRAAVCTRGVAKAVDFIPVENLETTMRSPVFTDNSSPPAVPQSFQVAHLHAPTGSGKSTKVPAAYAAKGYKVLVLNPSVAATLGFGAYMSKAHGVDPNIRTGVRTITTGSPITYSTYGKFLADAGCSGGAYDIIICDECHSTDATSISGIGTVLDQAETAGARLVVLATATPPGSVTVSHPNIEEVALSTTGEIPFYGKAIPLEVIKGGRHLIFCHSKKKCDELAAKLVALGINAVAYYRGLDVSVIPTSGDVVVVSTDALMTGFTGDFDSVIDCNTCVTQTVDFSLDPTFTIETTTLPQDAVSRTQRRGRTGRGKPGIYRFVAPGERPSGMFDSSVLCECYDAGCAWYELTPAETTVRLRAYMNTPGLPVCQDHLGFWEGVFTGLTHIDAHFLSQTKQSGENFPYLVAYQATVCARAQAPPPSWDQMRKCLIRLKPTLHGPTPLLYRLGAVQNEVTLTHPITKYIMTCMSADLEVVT

For the compound `CC(C)n1c(O[C@@H]2C[C@H]3C(=O)N[C@]4(C(=O)NS(=O)(=O)C5CC5)C[C@H]4/C=C\CCCCC[C@H](NC(=O)OC(C)(C)C)C(=O)N3C2)nc2c(-c3nccs3)cccc21` [Compound 211], the pIC50 against NS3/NS4 complexes was above 8.00. In addition, in the assay with hepatitis C replicon, the pEC50 was above 8.00.

For the compound `CC(C)n1c(O[C@@H]2C[C@H]3C(=O)N[C@]4(C(=O)NS(=O)(=O)C5CC5)C[C@H]4/C=C\CCCCC[C@H](NC(=O)OC(C)(C)C)C(=O)N3C2)nc2c(-c3ncco3)cccc21` [Compound 212], the pIC50 at NS3/NS4 complexes was above 8.00. In addition, the negative-log EC50 (pEC50) in the assay on hepatitis C replicon was above 8.00.

As for `CC(C)n1c(O[C@@H]2C[C@H]3C(=O)N[C@]4(C(=O)NS(=O)(=O)C5CC5)C[C@H]4/C=C\CCCCC[C@H](NC(=O)OC(C)(C)C)C(=O)N3C2)nc2c(-c3cccs3)cccc21` [Compound 213], the pIC50 on NS3/NS4 complexes was above 8.00. The pEC50 with hepatitis C replicon was above 8.00.

`CC(C)n1c(O[C@@H]2C[C@H]3C(=O)N[C@]4(C(=O)NS(=O)(=O)C5CC5)C[C@H]4/C=C\CCCCC[C@H](NC(=O)OC(C)(C)C)C(=O)N3C2)nc2c(-c3nc4ccccc4s3)cccc21` [Compound 214] had a pIC50 against NS3/NS4 complexes above 8.00. Moreover, the pEC50 in the assay with hepatitis C replicon is above 8.00.

The compound `Cc1csc(-c2cccc3c2nc(O[C@@H]2C[C@H]4C(=O)N[C@]5(C(=O)NS(=O)(=O)C6CC6)C[C@H]5/C=C\CCCCC[C@H](NC(=O)OC(C)(C)C)C(=O)N4C2)n3C(C)C)n1` [Compound 215] had a pIC50 on NS3/NS4 complexes above 8.00. Also, the pEC50 with hepatitis C replicon was above 8.00.

As to `Cc1cnc(-c2cccc3c2nc(O[C@@H]2C[C@H]4C(=O)N[C@]5(C(=O)NS(=O)(=O)C6CC6)C[C@H]5/C=C\CCCCC[C@H](NC(=O)OC(C)(C)C)C(=O)N4C2)n3C(C)C)s1` [Compound 216], the pIC50 on NS3/NS4 complexes is above 8.00. In the assay on hepatitis C replicon, the pEC50 was above 8.00.

Turning to `Cc1nc(-c2cccc3c2nc(O[C@@H]2C[C@H]4C(=O)N[C@]5(C(=O)NS(=O)(=O)C6CC6)C[C@H]5/C=C\CCCCC[C@H](NC(=O)OC(C)(C)C)C(=O)N4C2)n3C(C)C)sc1C` [Compound 217], the pIC50 on NS3/NS4 complexes was above 8.00. In addition, the negative logarithm of the EC50 (pEC50) in the assay on hepatitis C replicon is above 8.00.

Consider `CC(C)c1csc(-c2cccc3c2nc(O[C@@H]2C[C@H]4C(=O)N[C@]5(C(=O)NS(=O)(=O)C6CC6)C[C@H]5/C=C\CCCCC[C@H](NC(=O)OC(C)(C)C)C(=O)N4C2)n3C(C)C)n1` [Compound 218], for which the pIC50 against NS3/NS4 complexes is above 8.00. Also, in the assay on hepatitis C replicon, the pEC50 was above 8.00.

Compound `Cc1sc(-c2cccc3c2nc(O[C@@H]2C[C@H]4C(=O)N[C@]5(C(=O)NS(=O)(=O)C6CC6)C[C@H]5/C=C\CCCCC[C@H](NC(=O)OC(C)(C)C)C(=O)N4C2)n3C(C)C)nc1C(C)C` [Compound 219] gave a pIC50 on NS3/NS4 complexes above 8.00. Besides, the negative logarithm of the EC50 (pEC50) with hepatitis C replicon is above 8.00.

`CC(C)n1c(O[C@@H]2C[C@H]3C(=O)N[C@]4(C(=O)NS(=O)(=O)C5CC5)C[C@H]4/C=C\CCCCC[C@H](NC(=O)OC(C)(C)C)C(=O)N3C2)nc2c(-c3nc(C(C)(C)C)cs3)cccc21` [Compound 220]: the pIC50 against NS3/NS4 complexes is above 8.00. Also, in the assay with hepatitis C replicon, the pEC50 was above 8.00.

Compound `CC(C)n1c(O[C@@H]2C[C@H]3C(=O)N[C@]4(C(=O)NS(=O)(=O)C5CC5)C[C@H]4/C=C\CCCCC[C@H](NC(=O)OC(C)(C)C)C(=O)N3C2)nc2c(-c3nc(-c4ccccc4)cs3)cccc21` [Compound 221] gave a pIC50 at NS3/NS4 complexes above 8.00. Also, in the assay on hepatitis C replicon, the pEC50 was above 8.00.

For the compound `CC(C)n1c(O[C@@H]2C[C@H]3C(=O)N[C@]4(C(=O)NS(=O)(=O)C5CC5)C[C@H]4/C=C\CCCCC[C@H](NC(=O)OC(C)(C)C)C(=O)N3C2)nc2c(-c3cc(C(F)(F)F)nn3C)cccc21` [Compound 222], the pIC50 against NS3/NS4 complexes was above 8.00. For the same compound, the pEC50 in the assay on hepatitis C replicon was above 8.00.

In turn, `CC(C)n1c(O[C@@H]2C[C@H]3C(=O)N[C@]4(C(=O)NS(=O)(=O)C5CC5)C[C@H]4/C=C\CCCCC[C@H](NC(=O)OC(C)(C)C)C(=O)N3C2)nc2c(-c3cncs3)cccc21` [Compound 223] showed a pIC50 on NS3/NS4 complexes above 8.00. Besides, in the assay on hepatitis C replicon, the pEC50 was above 8.00.

With `CC(C)n1c(O[C@@H]2C[C@H]3C(=O)N[C@]4(C(=O)NS(=O)(=O)C5CC5)C[C@H]4/C=C\CCCCC[C@H](NC(=O)OC(C)(C)C)C(=O)N3C2)nc2c(Br)cccc21` [Compound 224], the pIC50 against NS3/NS4 complexes was above 8.00. For the same compound, in the assay on hepatitis C replicon, the pEC50 is above 8.00.

On to `C=Cc1cccc2c1nc(O[C@@H]1C[C@H]3C(=O)N[C@]4(C(=O)NS(=O)(=O)C5CC5)C[C@H]4/C=C\CCCCC[C@H](NC(=O)OC(C)(C)C)C(=O)N3C1)n2C(C)C` [Compound 225], for which the pIC50 on NS3/NS4 complexes is above 8.00. Moreover, in the assay with hepatitis C replicon, the pEC50 is above 8.00.

With `CC(C)n1c(O[C@@H]2C[C@H]3C(=O)N[C@]4(C(=O)NS(=O)(=O)N(C)C)C[C@H]4/C=C\CCCCC[C@H](NC(=O)OC(C)(C)C)C(=O)N3C2)nc2c(-c3nccs3)cccc21` [Compound 226], at NS3/NS4 complexes, the pIC50 is above 8.00. Moreover, the pEC50 in the assay on hepatitis C replicon is above 8.00.

`CC(C)n1c(O[C@@H]2C[C@H]3C(=O)N[C@]4(C(=O)NS(=O)(=O)N(C)C)C[C@H]4/C=C\CCCCC[C@H](NC(=O)OC(C)(C)C)C(=O)N3C2)nc2c(-c3ncco3)cccc21` [Compound 227] showed a pIC50 on NS3/NS4 complexes above 8.00. For the same compound, the pEC50 in the assay on hepatitis C replicon is above 8.00.

`Cc1csc(-c2cccc3c2nc(O[C@@H]2C[C@H]4C(=O)N[C@]5(C(=O)NS(=O)(=O)N(C)C)C[C@H]5/C=C\CCCCC[C@H](NC(=O)OC(C)(C)C)C(=O)N4C2)n3C(C)C)n1` [Compound 228] gave a pIC50 against NS3/NS4 complexes above 8.00. In the assay on hepatitis C replicon, the pEC50 is above 8.00.

At NS3/NS4 complexes, `Cc1cnc(-c2cccc3c2nc(O[C@@H]2C[C@H]4C(=O)N[C@]5(C(=O)NS(=O)(=O)N(C)C)C[C@H]5/C=C\CCCCC[C@H](NC(=O)OC(C)(C)C)C(=O)N4C2)n3C(C)C)s1` [Compound 229] showed a pIC50 above 8.00. Moreover, the pEC50 in the assay on hepatitis C replicon was above 8.00.

Take `Cc1sc(-c2cccc3c2nc(O[C@@H]2C[C@H]4C(=O)N[C@]5(C(=O)NS(=O)(=O)N(C)C)C[C@H]5/C=C\CCCCC[C@H](NC(=O)OC(C)(C)C)C(=O)N4C2)n3C(C)C)nc1C(C)C` [Compound 231]: the pIC50 on NS3/NS4 complexes was above 8.00. In the assay on hepatitis C replicon, the pEC50 was 7.00 to 8.00.

At NS3/NS4 complexes, `CC(C)n1c(O[C@@H]2C[C@H]3C(=O)N[C@]4(C(=O)NS(=O)(=O)N(C)C)C[C@H]4/C=C\CCCCC[C@H](NC(=O)OC(C)(C)C)C(=O)N3C2)nc2c(-c3nc(C(C)(C)C)cs3)cccc21` [Compound 232] gave a pIC50 above 8.00. The pEC50 in the assay with hepatitis C replicon was 7.00 to 8.00.

Take `CC(C)n1c(O[C@@H]2C[C@H]3C(=O)N[C@]4(C(=O)NS(=O)(=O)N(C)C)C[C@H]4/C=C\CCCCC[C@H](NC(=O)OC(C)(C)C)C(=O)N3C2)nc2c(-c3nc(-c4ccccc4)cs3)cccc21` [Compound 233]: the negative-log IC50 (pIC50) against NS3/NS4 complexes was above 8.00. In addition, the pEC50 in the assay with hepatitis C replicon is 7.00 to 8.00.

`CC(C)n1c(O[C@@H]2C[C@H]3C(=O)N[C@]4(C(=O)NS(=O)(=O)C5(C)CC5)C[C@H]4/C=C\CCCCC[C@H](NC(=O)OC(C)(C)C)C(=O)N3C2)nc2c(-c3nccs3)cccc21` [Compound 234] gave a pIC50 on NS3/NS4 complexes above 8.00. For the same compound, in the assay on hepatitis C replicon, the pEC50 was above 8.00.

On NS3/NS4 complexes, `CC(C)n1c(O[C@@H]2C[C@H]3C(=O)N[C@]4(C(=O)NS(=O)(=O)C5(C)CC5)C[C@H]4/C=C\CCCCC[C@H](NC(=O)OC(C)(C)C)C(=O)N3C2)nc2c(-c3ncco3)cccc21` [Compound 235] had a pIC50 above 8.00. The pEC50 with hepatitis C replicon was above 8.00.

For the compound `Cc1sc(-c2cccc3c2nc(O[C@@H]2C[C@H]4C(=O)N[C@]5(C(=O)NS(=O)(=O)C6(C)CC6)C[C@H]5/C=C\CCCCC[C@H](NC(=O)OC(C)(C)C)C(=O)N4C2)n3C(C)C)nc1C(C)C` [Compound 237], the pIC50 on NS3/NS4 complexes is above 8.00. Besides, the pEC50 in the assay on hepatitis C replicon is above 8.00.

On NS3/NS4 complexes, `CC(C)n1c(O[C@@H]2C[C@H]3C(=O)N[C@]4(C(=O)NS(=O)(=O)C5(C)CC5)C[C@H]4/C=C\CCCCC[C@H](Nc4ccccc4)C(=O)N3C2)nc2c(-c3ccc(F)cc3)cccc21` [Compound 238] showed a negative-log IC50 (pIC50) above 8.00. Besides, the pEC50 with hepatitis C replicon is 7.00 to 8.00.

On to `CC(C)n1c(O[C@@H]2C[C@H]3C(=O)N[C@]4(C(=O)NS(=O)(=O)C5(C)CC5)C[C@H]4/C=C\CCCCC[C@H](Nc4ccccc4)C(=O)N3C2)nc2c(-c3cccc(F)c3)cccc21` [Compound 239], for which the pIC50 against NS3/NS4 complexes was above 8.00. Also, in the assay with hepatitis C replicon, the negative-log EC50 (pEC50) is 7.00 to 8.00.

At NS3/NS4 complexes, `CC(C)n1c(O[C@@H]2C[C@H]3C(=O)N[C@]4(C(=O)NS(=O)(=O)C5(C)CC5)C[C@H]4/C=C\CCCCC[C@H](Nc4ccccc4)C(=O)N3C2)nc2c(-c3ccc(C#N)cc3)cccc21` [Compound 240] gave a pIC50 above 8.00. The pEC50 in the assay on hepatitis C replicon was 7.00 to 8.00.

On NS3/NS4 complexes, `CC(C)n1c(O[C@@H]2C[C@H]3C(=O)N[C@]4(C(=O)NS(=O)(=O)C5(C)CC5)C[C@H]4/C=C\CCCCC[C@H](Nc4ccccc4)C(=O)N3C2)nc2c(-c3cccc(C#N)c3)cccc21` [Compound 241] had a negative-log IC50 (pIC50) above 8.00. In addition, in the assay with hepatitis C replicon, the pEC50 was 7.00 to 8.00.

Regarding `CC(C)n1c(O[C@@H]2C[C@H]3C(=O)N[C@]4(C(=O)NS(=O)(=O)C5(C)CC5)C[C@H]4/C=C\CCCCC[C@H](Nc4ccccc4)C(=O)N3C2)nc2c(-c3ccccc3F)cccc21` [Compound 242], the pIC50 against NS3/NS4 complexes was above 8.00. In the assay on hepatitis C replicon, the pEC50 was 7.00 to 8.00.

At NS3/NS4 complexes, `CC(C)n1c(O[C@@H]2C[C@H]3C(=O)N[C@]4(C(=O)NS(=O)(=O)C5(C)CC5)C[C@H]4/C=C\CCCCC[C@H](Nc4ccccc4)C(=O)N3C2)nc2c(-c3ccc(F)c(F)c3)cccc21` [Compound 243] gave a pIC50 above 8.00. The pEC50 with hepatitis C replicon was below 7.00.

Turning to `COc1cccc(-c2cccc3c2nc(O[C@@H]2C[C@H]4C(=O)N[C@]5(C(=O)NS(=O)(=O)C6(C)CC6)C[C@H]5/C=C\CCCCC[C@H](Nc5ccccc5)C(=O)N4C2)n3C(C)C)c1` [Compound 244], the negative logarithm of the IC50 (pIC50) at NS3/NS4 complexes was above 8.00. For the same compound, the pEC50 with hepatitis C replicon is 7.00 to 8.00.
